Measurements as given in patent publication US10681909B2, “Herbicidal triazoles” (FMC Corporation, priority 2014, dated 2020).

What was measured:
[1] = system: lambsquarters; experiment: Test D postemergence; format: in vivo, Chenopodium album; settings: scale 0 to 100
From the text: (§1) Seeds of plant species selected from bluegrass (annual bluegrass, Poa annua), blackgrass (Alopecurus myosuroides), canarygrass (Phalaris minor), chickweed (common chickweed, Stellaria media), galium (catchweed bedstraw, Galium aparine), bromegrass, down (downy bromegrass, Bromus tectorum), Russian thistle (Salsola kali), field poppy (Papaver rhoeas), field violet (Viola arvensis), foxtail, green (green foxtail, Setaria viridis), deadnettle (henbit deadnettle, Lamium amplexicaule), ryegrass, Ital. (Italian ryegrass, Lolium multiflorum), kochia (Kochia scoparia), lambsquarters (Chenopodium album), oilseed rape (Brassica napus), pigweed (Amaranthus retroflexus), chamomile (scentless chamomile, Matricaria inodora), speedwell (bird's-eye speedwell, Veronica persica), barley, spring (spring barley, Hordeum vulgare), wheat, spring (spring wheat, Triticum aestivum), buckwheat, wild (wild buckwheat, Polygonum convolvulus), wild mustard (Sinapis arvensis), oat, wild (wild oat, Avena fatua), radish, wild (wild radish, Raphanus raphanistrum), […]), barley, winter (winter barley, Hordeum vulgare), and wheat, winter (winter wheat, Triticum aestivum) were planted into a silt loam soil and treated preemergence with test chemicals formulated in a non-phytotoxic solvent mixture which included a surfactant. At the same time, these species were planted in pots containing Sunshine Redi-Earth® planting medium comprising spaghnum peat moss, vermiculite, starter nutrients and dolomitic limestone and treated with postemergence applications of the test chemicals formulated in the same manner. Plants ranged in height from 2 to 18 cm (1- to 4-leaf stage). Treated plants and controls were maintained in a controlled growth environment for 14 to 21 d after which time all species were compared to controls and visually evaluated. […] A dash (-) response means no test result.

[2] = system: ryegrass, Ital.; experiment: Test D preemergence; format: in vivo, Lolium multiflorum; settings: for Plant response rating (0 to 100), Ryegrass, Ital.: 16 g ai/ha, 0 is no effect, 100 is complete control; for Plant response rating: Ryegrass, Ital.: scale 0 to 100
From the text: as §1

[3] = system: blackgrass; experiment: Test C preemergence; format: in vivo, Alopecurus myosuroides; settings: for Plant response rating (scale of 0 to 100 where 0 is no effect and 100 is complete control): Blackgrass, preemergence; for Blackgrass plant response rating (0 to 100): Preemergence, visual rating after 13 to 15 d
From the text: (§2) Seeds of plant species selected from blackgrass (Alopecurus myosuroides), ryegrass, Italian (Italian ryegrass, Lolium multiflorum), wheat (winter wheat, Triticum aestivum), galium (catchweed bedstraw, Galium aparine), corn (Zea mays), crabgrass, large (large crabgrass, Digitaria sanguinalis), foxtail, giant, (giant foxtail, Setaria faberii), johnsongrass (Sorghum halepense), lambsquarters (Chenopodium album), morningglory (Ipomoea coccinea), nutsedge, yellow (yellow nutsedge, Cyperus esculentus), pigweed (Amaranthus retroflexus), ragweed (common ragweed, Ambrosia elatior), soybean (Glycine max), barnyardgrass (Echinochloa crus-galli), oilseed rape (Brassica napus), waterhemp (common waterhemp, Amaranthus rudis), and velvetleaf (Abutilon theophrasti) were planted into a blend of loam soil and sand and treated preemergence with test chemicals formulated in a non-phytotoxic solvent mixture which included a surfactant. At the same time, plants selected from these crop and weed species and also chickweed (common chickweed, Stellaria media), oat, wild (wild oat, Avena fatua), and kochia (Kochia scoparia), were planted in pots containing Sunshine Redi-Earth® planting medium comprising spaghnum peat moss, vermiculite, starter nutrients and dolomitic limestone and treated with postemergence applications of test chemicals formulated in the same manner. Plants ranged in height from 2 to 18 cm (1- to 4-leaf stage) for postemergence treatments. […] A dash (-) response means no test result.

[4] = system: wheat, spring; experiment: Test D postemergence; format: in vivo, Triticum aestivum; settings: scale 0 to 100
From the text: as §1

[5] = system: wheat, winter; experiment: Test D postemergence; format: in vivo, Triticum aestivum; settings: scale 0 to 100
From the text: as §1

[6] = system: crabgrass, large; experiment: Test C preemergence; format: in vivo, Digitaria sanguinalis; settings: for Plant response rating (scale of 0 to 100 where 0 is no effect and 100 is complete control): Crabgrass, Large, preemergence; for Crabgrass, Large plant response rating (0 to 100): Preemergence, visual rating after 13 to 15 d
From the text: as §2

[7] = system: ryegrass, Italian; experiment: Test A postemergence; format: in vivo, Lolium multiflorum; settings: 0 to 100 scale (0 no effect, 100 complete control), approx. 10 d
Summary of the method: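 Visual 0–100 ratings (0 no effect, 100 complete control) made roughly 10 days after treatment, comparing greenhouse-grown plants to untreated controls. Formulated test chemicals, with surfactant, went either as directed soil spray at planting or onto 2–10 cm seedlings bearing one to two leaves.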

[8] = system: wheat; experiment: Test A preemergence; format: in vivo, Triticum aestivum; settings: Triticum aestivum, pre-emergence, 240 h, 0 to 100 scale (0 no effect, 100 complete control), read-out: Plant response rating, Wheat; for plant injury at 125 g/ha: 125 g ai/ha; for plant injury at 500 g/ha: 500 g ai/ha, approx. 10 d
Summary of the method: (§3)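 Herbicidal response was scored on plants treated pre- or postemergence with surfactant-containing, non-phytotoxic solvent formulations. Preemergence meant a directed spray onto soil (loam–sand) holding sown seed; postemergence plants were at one to two leaves.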

[9] = system: velvetleaf; experiment: Test A preemergence; format: in vivo, Abutilon theophrasti; settings: Abutilon theophrasti, pre-emergence, 240 h, 0 to 100 scale (0 no effect, 100 complete control), read-out: Plant response rating, Velvetleaf; for pest or weed control at 125 g/ha: 125 g ai/ha; for pest or weed control at 500 g/ha: 500 g ai/ha, approx. 10 d
Summary of the method: as §3

SMILES	Plant response rating: Lambsquarters ([1]; 16 g ai/ha)	Plant response rating: Lambsquarters ([1]; 31 g ai/ha)	Plant response rating: Lambsquarters ([1]; 62 g ai/ha)	Plant response rating: Lambsquarters ([1]; 125 g ai/ha)	Plant response rating: Ryegrass, Ital. ([2]; 62 g ai/ha)	Plant response rating: Ryegrass, Ital. ([2]; 125 g ai/ha)	Plant response rating (scale of 0 to 100 where 0 is no effect and 100 is complete control) ([3]; 125 g ai/ha)	Plant response rating (scale of 0 to 100 where 0 is no effect and 100 is complete control) ([3]; 250 g ai/ha)	Blackgrass plant response rating (0 to 100) ([3]; 31 g ai/ha)	Blackgrass plant response rating (0 to 100) ([3]; 62 g ai/ha)	Plant response rating: Wheat, Spring ([4]; 31 g ai/ha)	Plant response rating: Wheat, Spring ([4]; 62 g ai/ha)	Plant response rating: Wheat, Spring ([4]; 125 g ai/ha)	Plant response rating: Wheat, Winter ([5]; 31 g ai/ha)	Plant response rating: Wheat, Winter ([5]; 62 g ai/ha)	Plant response rating: Wheat, Winter ([5]; 125 g ai/ha)	Plant response rating (scale of 0 to 100 where 0 is no effect and 100 is complete control) ([6]; 125 g ai/ha)	Plant response rating (scale of 0 to 100 where 0 is no effect and 100 is complete control) ([6]; 250 g ai/ha)	Crabgrass, Large plant response rating (0 to 100) ([6]; 31 g ai/ha)	Crabgrass, Large plant response rating (0 to 100) ([6]; 62 g ai/ha)	other results
Fc1ccc(-c2nc(OCC(F)(F)F)n(Cc3ccnc(C(F)(F)F)c3)n2)cc1 [Compound 30]	85	90	95	95	55	70	90	90	60	80	30	35	45	15	25	35	100	100	98	100	Plant response rating (0 to 100), Ryegrass, Ital. [2]: 40; Plant response rating: Wheat, Spring ([4]; 16 g ai/ha): 25; Plant response rating: Wheat, Winter ([5]; 16 g ai/ha): 15; Plant response rating, Ryegrass, Italian ([7]; 125 g ai/ha): 50; Plant response rating, Ryegrass, Italian ([7]; 500 g ai/ha): 80
CCOc1nc(-c2ccc(C(F)(F)F)cc2)nn1Cc1ccnc(C(F)(F)F)c1 [Compound 35, 4-[[5-ethoxy-3-[4-(trifluoromethyl)phenyl]-1H-1,2,4-triazole-1-yl]methyl]-2-(trifluoromethyl)pyridine]	85	95	95	100	65	70	90	90	90	85	40	50	50	35	40	45	100	100	100	100	Plant response rating (0 to 100), Ryegrass, Ital. [2]: 35; Plant response rating: Wheat, Spring ([4]; 16 g ai/ha): 25; Plant response rating: Wheat, Winter ([5]; 16 g ai/ha): 20; Plant response rating, Ryegrass, Italian ([7]; 31 g ai/ha): 30; Plant response rating, Ryegrass, Italian ([7]; 125 g ai/ha): 60
CCc1nc(-c2ccc(C(F)(F)F)cc2)nn1Cc1ccnc(C(F)(F)F)c1 [Compound 1, 4-[[5-ethyl-3-[4-(trifluoromethyl)phenyl]-1H-1,2,4-triazol-1-yl]methyl]-2-(trifluoromethyl)pyridine]		75	80	85	25	30	80	85	5	75	20	25	35	15	15	25	100	100	98	100	Plant response rating: Lambsquarters ([1]; 250 g ai/ha): 90; Plant response rating: Ryegrass, Ital. ([2]; 250 g ai/ha): 35; Plant response rating: Wheat, Spring ([4]; 250 g ai/ha): 45; Plant response rating: Wheat, Winter ([5]; 250 g ai/ha): 35; plant injury at 125 g/ha [8]: 20%; plant injury at 500 g/ha [8]: 30%; pest or weed control at 125 g/ha [9]: 30%; pest or weed control at 500 g/ha [9]: 100%
COc1nc(-c2ccc(Cl)cc2)nn1Cc1ccnc(C(F)(F)F)c1 [Compound 28]	75	90	85	95	25	55					15	20	25	20	25	20					Plant response rating (0 to 100), Ryegrass, Ital. [2]: 25; Plant response rating: Wheat, Spring ([4]; 16 g ai/ha): 10; Plant response rating: Wheat, Winter ([5]; 16 g ai/ha): 15; Plant response rating, Ryegrass, Italian ([7]; 125 g ai/ha): 20; Plant response rating, Ryegrass, Italian ([7]; 500 g ai/ha): 50
CCOc1nc(-c2ccc(F)cc2)nn1Cc1ccnc(C(F)(F)F)c1 [Compound 8, 4-[[5-ethoxy-3-(4-fluorophenyl)-1H-1,2,4-triazol-1-yl]methyl]-2-(trifluoromethyl)pyridine]		95	95	95	40	95	90	90	90	90	25	25	35	25	35	35	100	100	100	100	Plant response rating: Lambsquarters ([1]; 250 g ai/ha): 90; Plant response rating: Ryegrass, Ital. ([2]; 250 g ai/ha): 100; Plant response rating: Wheat, Spring ([4]; 250 g ai/ha): 35; Plant response rating: Wheat, Winter ([5]; 250 g ai/ha): 35; plant injury at 125 g/ha [8]: 80%; plant injury at 500 g/ha [8]: 100%; pest or weed control at 125 g/ha [9]: 70%; pest or weed control at 500 g/ha [9]: 90%
